Results as given in PubChem BioAssay (NCI).
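Tested at 5 concentrations; 48 h exposure; 96-well plates; endpoints linearly interpolated, else capped at highest concentration. Abbreviation: GI50, concentration required for 50% inhibition of growth. TGI: concentration producing complete growth inhibition.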

How the values were obtained:
Assay in all cases: growth of human tumour cells (NCI), 48 h
[1] = system: HCC-2998 colon
[2] = system: MOLT-4 leukemia
[3] = system: HOP-92 NSCLC
[4] = system: SN12C renal
[5] = system: SF-268 CNS
[6] = system: SW-620 colon
[7] = system: RXF 393 renal
[8] = system: M14 melanoma
[9] = system: UACC-257 melanoma
[10] = system: NCI-H226 lung

| Compound | GI50 [1] | TGI [1] | GI50 [2] | TGI [2] | GI50 [3] [µM] | TGI [3] [µM] | GI50 [4] | TGI [4] | GI50 [5] | TGI [5] | GI50 [6] | TGI [6] | GI50 [7] | TGI [7] | GI50 [8] | TGI [8] | GI50 [9] | TGI [9] | GI50 [10] | TGI [10] |
| --- | --- | --- | --- | --- | --- | --- | --- | --- | --- | --- | --- | --- | --- | --- | --- | --- | --- | --- | --- | --- |
| COc1ccc(-c2c(N)noc2-c2cc(OC)c3c(c2)OCCO3)cc1 | 0.0173 µM | 0.902 µM | 0.0353 µM | 5.31 µM | 0.12 | > 40 | 0.0438 µM | > 100 µM | 0.0481 µM | > 100 µM | < 0.01 µM | > 100 µM | < 0.01 µM | 0.0467 µM | < 0.01 µM | 0.048 µM | – | – | – | – |
| Cc1cc(NN=C(c2ccc(O)cc2)c2ccc(O)cc2)c([N+](=O)[O-])cc1[N+](=O)[O-] | 8.24 µM | 28.7 µM | 1.84 µM | 14.6 µM | – | – | 6.79 µM | 24.7 µM | 5.34 µM | 57.3 µM | 8.83 µM | 45.6 µM | 1.79 µM | 6.56 µM | 4.5 µM | 21.1 µM | 4.71 µM | 8.29 µM | 7.76 µM | 40.1 µM |
| O=C1CCC(=O)N1Sc1ccccc1 | – | – | – | > 100 µM | – | > 100 | – | > 100 µM | – | > 100 µM | – | > 100 µM | – | > 100 µM | – | > 100 µM | – | > 100 µM | – | – |
| Clc1ccc(CN2CCCN(Cc3ccc(Cl)cc3)C2c2cc3ccccc3c3ccccc23)cc1 | – | – | – | > 100 µM | – | > 100 | – | > 100 µM | – | > 100 µM | – | > 100 µM | – | > 100 µM | – | 34.2 µM | – | 56.1 µM | – | > 100 µM |
| O=C(O)CCCCC1CCSS1 (stereo unspecified) | – | > 100 µM | – | > 100 µM | – | > 100 | – | – | – | > 100 µM | – | > 100 µM | – | – | – | > 100 µM | – | > 100 µM | – | > 100 µM |
| O=C1OC(=O)C([Se]c2ccccc2)=C1[Se]c1ccccc1 | – | – | – | > 100 µM | – | > 100 | – | > 100 µM | – | > 100 µM | – | > 100 µM | – | > 100 µM | – | > 100 µM | – | > 100 µM | – | > 100 µM |
| O=CN1N=C(c2cccc(Nc3ccnc4cc(Cl)ccc34)c2)CC1c1ccc(Cl)cc1 (stereo unspecified) | 3.36 µM | > 100 µM | 1.92 µM | 80.3 µM | – | – | 3.86 µM | > 100 µM | 4.37 µM | > 100 µM | 0.557 µM | > 100 µM | 3.08 µM | > 100 µM | 1.04 µM | > 100 µM | – | – | > 100 µM | > 100 µM |
| Nn1c(-c2ccc(Cl)cc2)nc2c(-c3ccc(Cl)cc3)nc3ccc(Cl)cc3c2c1=O | – | – | 4.67 µM | > 100 µM | 13.6 | 31.6 | 7.46 µM | > 100 µM | 5.18 µM | 72.3 µM | 6.06 µM | > 100 µM | 11.8 µM | 30.9 µM | 15.1 µM | > 100 µM | 25.2 µM | > 100 µM | 40.8 µM | > 100 µM |
| COCC(C(=O)OC1C/C=C/C=C/C(=O)OC(C(C)C(O)C(C)CCC(OC(=O)C(C)N(C)C)C(C)C(OC(C)=O)C(C)/C=C/N(C)C=O)C/C=C/C(OC)CC(C)C/C=C(\C)C(OC)CCC(C)C(O)C1C)N(C)C (stereo unspecified) | < 0.0001 µM | 0.237 µM | < 0.0001 µM | > 0.201 µM | 0.00145 | 0.024 | < 0.0001 µM | 0.105 µM | < 0.0001 µM | 0.00161 µM | < 0.0001 µM | > 1 µM | < 0.0001 µM | 0.0177 µM | < 0.0001 µM | 0.00697 µM | < 0.0001 µM | > 1 µM | – | – |
| Nc1ccccc1C#Cc1ccccc1C#Cc1cccs1 | – | – | 32.4 µM | > 100 µM | 5.87 | 22.2 | 14.5 µM | 29.1 µM | 20.4 µM | 42.8 µM | 18 µM | 41.1 µM | 18.2 µM | > 100 µM | 17.4 µM | 34.1 µM | 18.1 µM | 53.2 µM | 17.7 µM | 43.3 µM |
| N#[N+]c1ccc(Nc2ccccc2)cc1 | > 50 µg/mL | > 50 µg/mL | > 50 µg/mL | > 50 µg/mL | – | – | > 50 µg/mL | > 50 µg/mL | > 50 µg/mL | > 50 µg/mL | > 50 µg/mL | > 50 µg/mL | > 50 µg/mL | > 50 µg/mL | > 50 µg/mL | > 50 µg/mL | > 50 µg/mL | > 50 µg/mL | > 50 µg/mL | > 50 µg/mL |
| CCCCCC[C@H]1C(=O)O[C@H](C)[C@H](NC(=O)c2cccc(NC=O)c2OC)C(=O)O[C@@H](C)[C@@H]1OC(=O)CCC (tested in a mixture with another compound) | 14.9 µM | 38.2 µM | 5.64 µM | 26.6 µM | – | – | 16.2 µM | 37.1 µM | 13.7 µM | 36.6 µM | 13 µM | 72.3 µM | 15.3 µM | 32.4 µM | 16 µM | 38.3 µM | 2.81 µM | 11.9 µM | 14.7 µM | 39.4 µM |
| O=C1C(=O)C2(CC1S(=O)(=O)c1ccccc1)c1ccccc1-c1ccccc12 (stereo unspecified) | – | 30.1 µM | – | 50.5 µM | – | – | – | 78.1 µM | – | 76.7 µM | – | 85.1 µM | – | 35.6 µM | – | 28.4 µM | – | 33 µM | – | 82.6 µM |
| Cn1c(=O)c2c(nc(N/N=C/c3ccccc3C(=O)O)n2C)n(C)c1=O | – | – | – | > 100 µM | – | > 100 | – | > 100 µM | – | > 100 µM | – | > 100 µM | – | > 100 µM | – | > 100 µM | – | > 100 µM | – | > 100 µM |
| COc1cc2c3c(n(CCCNCCCNCCCN)c(=O)c2cc1OC)-c1cc2c(cc1C3=O)OCO2 | – | – | 21.2 µM | > 100 µM | > 100 | > 100 | 32.9 µM | > 100 µM | > 100 µM | > 100 µM | 82.5 µM | > 100 µM | > 100 µM | > 100 µM | 52 µM | > 100 µM | > 100 µM | > 100 µM | > 100 µM | > 100 µM |
| O=C(O)c1ccccc1NCn1c(=S)sc2ccccc21 | – | – | – | > 100 µM | – | > 100 | – | > 100 µM | – | > 100 µM | – | > 100 µM | – | > 100 µM | – | > 100 µM | – | > 100 µM | – | – |
| OCC(O)C(O)C(O)C(O)c1nnc2c(-c3ccccc3)nc3ccccc3n12 (stereo unspecified) | 62.4 µM | > 100 µM | – | – | > 100 | > 100 | > 100 µM | > 100 µM | > 100 µM | > 100 µM | > 100 µM | > 100 µM | 56.8 µM | > 100 µM | > 100 µM | > 100 µM | > 100 µM | > 100 µM | > 100 µM | > 100 µM |
